“Also recorded” adds a separate entry of the source.
What was measured:
[1] = target: T1, Aspergillus topoisomerase I (Aspergillus nidulans, UniProt Q5BGS7); assay: Topoisomerase I cleavage assay, Aspergillus enzyme; assay type: biochemical; conditions: for inhibition (poisoning) of Aspergillus topoisomerase I, in words: DNA cleavage assay; for sensitivity of Aspergillus versus human topoisomerase I: cleavage assay, Aspergillus 60 units/reaction, human 150 units/reaction; for concentration at which extensive DNA cleavage was observed: DNA cleavage with Aspergillus topoisomerase I
T1 construct: about 105 kDa by phosphate transfer
T1 sequence (Q5BGS7 1-871): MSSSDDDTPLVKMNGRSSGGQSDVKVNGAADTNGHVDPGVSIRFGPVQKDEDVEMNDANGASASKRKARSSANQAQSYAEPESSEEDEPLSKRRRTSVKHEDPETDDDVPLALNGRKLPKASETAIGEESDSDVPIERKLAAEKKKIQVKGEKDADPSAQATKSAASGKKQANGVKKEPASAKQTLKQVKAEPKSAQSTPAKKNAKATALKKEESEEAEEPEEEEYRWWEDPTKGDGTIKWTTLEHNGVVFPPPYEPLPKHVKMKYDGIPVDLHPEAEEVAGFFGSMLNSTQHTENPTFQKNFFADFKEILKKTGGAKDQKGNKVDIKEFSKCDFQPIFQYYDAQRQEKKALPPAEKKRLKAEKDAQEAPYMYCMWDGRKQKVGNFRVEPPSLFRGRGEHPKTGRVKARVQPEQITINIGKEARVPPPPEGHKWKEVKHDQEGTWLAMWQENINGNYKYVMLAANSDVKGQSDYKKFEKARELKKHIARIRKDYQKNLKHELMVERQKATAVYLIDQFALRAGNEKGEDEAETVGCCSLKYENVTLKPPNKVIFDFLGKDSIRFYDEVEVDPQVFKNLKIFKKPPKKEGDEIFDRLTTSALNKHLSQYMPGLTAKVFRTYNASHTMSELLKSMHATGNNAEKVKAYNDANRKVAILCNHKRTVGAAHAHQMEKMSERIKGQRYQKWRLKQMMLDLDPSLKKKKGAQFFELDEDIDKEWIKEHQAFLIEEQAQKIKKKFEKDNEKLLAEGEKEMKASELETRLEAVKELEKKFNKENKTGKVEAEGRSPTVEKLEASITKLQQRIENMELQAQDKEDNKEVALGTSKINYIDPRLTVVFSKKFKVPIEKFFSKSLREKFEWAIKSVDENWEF

[2] = tested on: CPT-K5 (camptothecin-resistant variant of RPMI 8402); assay: MTT cytotoxicity assay, CPT-K5; assay type: cell-based, human
Description: The cytotoxicity was determined using the as MTT-microtiter plate tetrazolinium cytotoxicity assay (MTA) following the procedures of F. Denizot et al., J. Immunol. Methods, 89, 271 (1986); J. Carmichael et al., Cancer Res, 47, 936 (1987) and T. J. Mosmann et al., Immunol. Methods, 65, 55 (1983). The human lymphoblast RPMI 8402 and its camptothecin-resistant variant cell line, CPT-K5 were provided by Dr. Toshiwo Andoh (Aichi Cancer Center Research Institute, Nagoya, Japan). See, for example, T. Andoh et al., Adv. Pharmacol., 29B, 93 (1994). The cytotoxicity assay was performed using 96-well microtiter plates. Cells were grown in suspension at 37 ° C. in 5% CO2 and maintained by regular passage in RPMI medium supplemented with 10% heat inactivated fetal bovine serum, L-glutamine (2 mM), penicillin (100 U/ml), and streptomycin (0.1 mg/ml). For determination of IC50, cells were exposed continuously with varying concentrations of drug concentrations and MTT assays were performed at the end of the fourth day.

## N#Cc1ccc2[nH]c(-c3ccc4[nH]c(-c5ccc6[nH]cnc6c5)nc4c3)nc2c1 [Compound 11, 5-Cyano-2-[2'-(benzimidazol-5"-yl)benzimidazol-5'-yl]benzimidazole]
[1]
  inhibition (poisoning) of Aspergillus topoisomerase I, in words: strongly inhibited (poisoned); also recorded: sensitive
  sensitivity of Aspergillus versus human topoisomerase I: more active against the Aspergillus than the human enzyme

## c1ccc(-c2ccc3[nH]c(-c4ccc5[nH]c(-c6ccc7[nH]cnc7c6)nc5c4)nc3c2)cc1 [Compound 13, 5-Phenyl-2-[2'(benzimidazol-5"-yl)benzimidazol-5'-yl]benzimidazole]
[1]
  inhibition (poisoning) of Aspergillus topoisomerase I, in words: strongly inhibited (poisoned); also recorded: sensitive
  sensitivity of Aspergillus versus human topoisomerase I: substantially more sensitive
[2]
  effect against camptothecin-resistant CPT-K5 cells, in words: effective

## CCOc1ccc(-c2nc3cc(-c4nc5cc(N6CCN(C)CC6)ccc5[nH]4)ccc3[nH]2)cc1 [Hoechst 33342, 2'-(4-ethoxyphenyl)-5-(4-methyl-1-piperazinyl)-2,5'-bi-1H-benzimidazole]
[1]; listed as Ho33342
  inhibition (poisoning) of Aspergillus topoisomerase I, in words: potent inhibitors; also recorded: selective sensitivity; also recorded: sensitive
[1]
  concentration at which extensive DNA cleavage was observed: ≤ 0.1 mg/mL
[1]; Ho33342 10 mg/ml
  topoisomerase I-mediated DNA cleavage at the highest concentration: dramatically inhibited
[2]
  effect against camptothecin-resistant CPT-K5 cells, in words: effective

## CC[C@@]1(O)C(=O)OCc2c1cc1n(c2=O)Cc2cc3ccccc3nc2-1 [camptothecin]
[1]
  inhibition (poisoning) of Aspergillus topoisomerase I, in words: potent inhibitors; also recorded: sensitive
  concentration at which extensive DNA cleavage was observed: ≤ 1.0 mg/mL
  sensitivity of Aspergillus versus human topoisomerase I: less active against the Aspergillus than the human enzyme
[1]; listed as CPT
  sensitivity of Aspergillus versus human topoisomerase I: less sensitive to CPT than the human enzyme

Source: US5770617A, “Terbenzimidazoles useful as antifungal agents” (Rutgers, The State University of New Jersey, priority 1997, dated 1998)
